Results from patent publication US8058437B2, “(Pyrroloquinoxalinyl) pyrazinecarbohydrazide-oxalic acid co-crystal for treatment of cancer and other diseases” (Novelix Pharmaceuticals, Inc., priority 2008, dated 2011).
Several values for one entry are separate records, joined by “and”; a condition that tells them apart may be missing. Identical values can stand only once. Like-named read-outs stand apart in the source and are kept apart here.

Assays:
[1] = Salt formation experiments / physical characteristics of solid forms; type: physicochemical; conditions: free base prepared from NVX-144.HCl; salt formation with acids
Experimental: Thus, a series of experiments was conducted to assess the preparation of NVX-144 salts of acids other than hydrochloric acid as possible novel compounds better suited to pharmaceutical preparations. […] As expected, NVX-144 base readily formed salts with strong organic acids.
Although oxalic acid co-crystals are rare, Trask et al. have reported a co-crystal of caffeine with oxalic acid (see Trask et al., “Pharmaceutical Cocrystallization: Engineering a Remedy for Caffeine Hydration,” Crystal Growth & Design, 5, 1013-21 (2005)).
Thus NVX-144 would not be expected to form a salt with oxalic acid, a relatively strong dicarboxylic acid.

[2] = Pharmacokinetic experiments in rats (IV, oral suspension, oral solution); type: in vivo; conditions: rat; for concentration at 0.5 h / concentration at 1 h / concentration at 4 h / concentration at 8 h: oral; for bioavailability: adjusted for dose
Experimental: The oral suspension formulation was prepared by suspending the test article in 5% PEG-200/95% of a 0.5% solution of methylcellulose. The concentration of the test article was such that a dosing volume of 10 mL/kg delivered the intended dose level. The oral solution formulations of NVX-144 and NVX-412 were prepared by dissolving the test article in 10% by volume dimethyl acetamide, followed by 60% by volume PEG-400, and then adding slowly a solution of 30% Captisol® in 50 mM lactic acid to provide the remaining 30% of volume. The concentration of the test article was such that a dosing volume of 10 mL/kg delivered the intended dose level. The IV formulation of NVX-412 was prepared by dissolving the test article in 10% by volume dimethyl acetamide, followed by 10% by volume PEG-400, and then adding slowly a solution of 10% Captisol® in 50 mM lactic acid to provide the remaining 80% of volume. The concentration of the test articles was such that a dosing volume of 2.5 mL/kg delivered the intended dose level. The doses administered were based on the body weight of each animal taken shortly before dosing. The formulations were used immediately after preparation.
A total of 15 rats were assigned to the study. Five groups of three male rats each comprised the study. Each group was treated once by oral gavage or intravenous injection via the tail vein as specified in Table 3 below.
The animals were fasted overnight prior to dosing and the feed returned approximately 2 hours post-dosing. The dose for each animal was based on the most recent body weight. Oral doses were administered by gavage. Animals received 10 mL/kg per single oral dose. Intravenous doses were administered by tail vein injection. The dose for each animal was based on the most recent body weight. Animals were dosed at 2.5 mL/kg per single intravenous dose.
Blood was collected from the animals in Groups 1 through 5 for pharmacokinetic analysis. Approximately 0.3 mL of blood was collected in potassium EDTA tubes via the orbital plexus at four time points (30 minutes, 1 hour, 4 hours, and 8 hours post-dose) from each rat treated by the oral route, and the blood samples were processed to prepare plasma. Blood was collected at four time points (5 minutes, 30 minutes, 1 hour, and 2 hours post-dose) from each rat treated by the intravenous route, and the blood samples were processed to prepare plasma. Animals were terminated (without necropsy) following their final sample collection.
The whole blood samples were centrifuged (˜1500×g) for a minimum of 10 minutes in a refrigerated centrifuge (set at ˜5° C.). Plasma was prepared and transferred within 30 minutes of blood collection/centrifugation to appropriately labeled tubes. The tubes were then frozen and stored in the dark at ≦−70° C. until analysis. The plasma samples were analyzed by LC-MS/MS to determine the plasma concentrations of NVX-144 and NVX-412. Pharmacokinetic analysis of the plasma concentration data was conducted using non-compartmental analysis with WinNonlin Version 4.1.

[3] = male, plasma, po, 20 mg/kg, Group 2, PO-Suspension 20 mg/kg, Mean N=3
[4] = male, plasma, po, 20 mg/kg, Group 2, PO-Suspension 20 mg/kg, individual animals
[5] = male, plasma, po, 20 mg/kg, Group 4, PO-Solution 20 mg/kg, Mean N=3
[6] = male, plasma, po, 20 mg/kg, Group 4, PO-Solution 20 mg/kg, individual animals
[7] = Group 2, PO-Suspension 20 mg/kg, Mean N=3, listed as NVX-144 Free Base
[8] = Group 2, PO-Suspension 20 mg/kg, individual animals, listed as NVX-144 Free Base
[9] = Group 4, PO-Solution 20 mg/kg, Mean N=3, listed as NVX-144 Free base
[10] = Group 4, PO-Solution 20 mg/kg, individual animals, listed as NVX-144 Free base

With `O=C(NNc1nc2cc(F)ccc2n2cccc12)c1cnccn1` [NVX-144, N′-(7-fluoropyrrolo[1,2a]quinoxalin-4-yl)pyrazine-2-carbohydrazide, reference compound] the basicity [1] was “very weak base”, the concentration at 0.5 h ([2]; male, plasma, 20 mg/kg, Group 2, PO-Suspension 20 mg/kg, 0.5 hr, Mean) was 479 ng/mL and the concentration at 0.5 h ([2]; male, plasma, 20 mg/kg, Group 2, PO-Suspension 20 mg/kg, 0.5 hr, individual animals) was 436 ng/mL. For the same compound, the concentration at 1 h ([2]; male, plasma, 20 mg/kg, Group 2, PO-Suspension 20 mg/kg, 1 hr, Mean) was 427 ng/mL, the concentration at 4 h ([2]; male, plasma, 20 mg/kg, Group 2, PO-Suspension 20 mg/kg, 4 hr, Mean) was 227 ng/mL and the concentration at 4 h ([2]; male, plasma, 20 mg/kg, Group 2, PO-Suspension 20 mg/kg, 4 hr, individual animals) was 270 ng/mL. For the same compound, the concentration at 8 h ([2]; male, plasma, 20 mg/kg, Group 2, PO-Suspension 20 mg/kg, 8 hr, Mean) was 10.9 ng/mL, the concentration at 0.5 h ([2]; male, plasma, 20 mg/kg, Group 4, PO-Solution 20 mg/kg, 0.5 hr, Mean) was 709 ng/mL and the concentration at 0.5 h ([2]; male, plasma, 20 mg/kg, Group 4, PO-Solution 20 mg/kg, 0.5 hr, individual animals) was 691 ng/mL. The concentration at 1 h ([2]; male, plasma, 20 mg/kg, Group 4, PO-Solution 20 mg/kg, 1 hr, Mean) was 643 ng/mL, the concentration at 1 h ([2]; male, plasma, 20 mg/kg, Group 4, PO-Solution 20 mg/kg, 1 hr, individual animals) was 570 ng/mL and the concentration at 4 h ([2]; male, plasma, 20 mg/kg, Group 4, PO-Solution 20 mg/kg, 4 hr, Mean) was 225 ng/mL. It also gave a concentration at 4 h ([2]; male, plasma, 20 mg/kg, Group 4, PO-Solution 20 mg/kg, 4 hr, individual animals) of 289 ng/mL, a concentration at 8 h ([2]; male, plasma, 20 mg/kg, Group 4, PO-Solution 20 mg/kg, 8 hr, Mean) of 31.5 ng/mL and an AUC [2, 3] of 1800 ng·h/mL. For the same compound, the AUC(0-inf) [2, 3] was 1830 ng·h/mL, the Cmax ([2]; male, plasma, po, 20 mg/kg, Group 2, PO-Suspension 20 mg/kg, Mean N=3, read-out: Cmax) was 487 ng/mL and the half-life ([2]; male, plasma, po, 20 mg/kg, Group 2, PO-Suspension 20 mg/kg, Mean N=3, read-out: T ½ (converted)) was 1.4 h. For the same compound, the Tmax ([2]; male, plasma, po, 20 mg/kg, Group 2, PO-Suspension 20 mg/kg, Mean N=3, read-out: Tmax) was 0.67 h, the bioavailability ([2]; male, plasma, po, 20 mg/kg, Group 2, PO-Suspension 20 mg/kg, Mean N=3, versus mean IV AUCINF, read-out: Bioavailability) was 34.7% and the AUC [2, 4] was 1690 ng·h/mL. The AUC(0-inf) [2, 4] was 1720 ng·h/mL, the Cmax ([2]; male, plasma, po, 20 mg/kg, Group 2, PO-Suspension 20 mg/kg, individual animals, read-out: Cmax) was 436 ng/mL and the half-life ([2]; male, plasma, po, 20 mg/kg, Group 2, PO-Suspension 20 mg/kg, individual animals, read-out: T ½ (converted)) was 1.66 h. For the same compound, the Tmax ([2]; male, plasma, po, 20 mg/kg, Group 2, PO-Suspension 20 mg/kg, individual animals, read-out: Tmax) was 0.5 to 1 h, the bioavailability ([2]; male, plasma, po, 20 mg/kg, Group 2, PO-Suspension 20 mg/kg, individual animals, versus mean IV AUCINF, read-out: Bioavailability) was 32.8% and the AUC [2, 5] was 2330 ng·h/mL. The AUC(0-inf) [2, 5] was 2520 ng·h/mL, the Cmax ([2]; male, plasma, po, 20 mg/kg, Group 4, PO-Solution 20 mg/kg, Mean N=3, read-out: Cmax) was 714 ng/mL and the half-life ([2]; male, plasma, po, 20 mg/kg, Group 4, PO-Solution 20 mg/kg, Mean N=3, read-out: T ½ (converted)) was 1.6 h. The Tmax ([2]; male, plasma, po, 20 mg/kg, Group 4, PO-Solution 20 mg/kg, Mean N=3, read-out: Tmax) was 0.67 h, the bioavailability ([2]; male, plasma, po, 20 mg/kg, Group 4, PO-Solution 20 mg/kg, Mean N=3, versus mean IV AUCINF, read-out: Bioavailability) was 46.1% and the AUC [2, 6] was 2500 ng·h/mL. For the same compound, the AUC(0-inf) [2, 6] was 2760 ng·h/mL, the Cmax ([2]; male, plasma, po, 20 mg/kg, Group 4, PO-Solution 20 mg/kg, individual animals, read-out: Cmax) was 691 ng/mL and the Tmax ([2]; male, plasma, po, 20 mg/kg, Group 4, PO-Solution 20 mg/kg, individual animals, read-out: Tmax) was 0.5 to 1 h. For the same compound, the bioavailability ([2]; male, plasma, po, 20 mg/kg, Group 4, PO-Solution 20 mg/kg, individual animals, versus mean IV AUCINF, read-out: Bioavailability) was 52.6%, the plasma concentration ([2]; Group 2, PO-Suspension 20 mg/kg, 0.5 hr, individual animals, listed as NVX-144 Free Base) was 428.07 ng/mL and 571.69 ng/mL and the plasma concentration ([2]; Group 2, PO-Suspension 20 mg/kg, 1 hr, individual animals, listed as NVX-144 Free Base) was 282.56 ng/mL and 401.49 ng/mL and 597.75 ng/mL. For the same compound, the plasma concentration ([2]; Group 2, PO-Suspension 20 mg/kg, 4 hr, individual animals, listed as NVX-144 Free Base) was 234.64 ng/mL and 175.82 ng/mL, the plasma concentration ([2]; Group 2, PO-Suspension 20 mg/kg, 8 hr, individual animals, listed as NVX-144 Free Base) was 14.92 ng/mL and 12.33 ng/mL and 5.37 ng/mL and the “AUC % Extrap” value ([2]; Group 2, PO-Suspension 20 mg/kg, Mean N=3) was 1.32%. For the same compound, the AUCINF [2, 7] was 1826.45 ng·h/mL, the Cmax [2, 7] was 487.28 ng/mL and the “T ½” value [2, 7] was 1.39 h. For the same compound, the “AUC % Extrap” value [2, 8] was 2.08% and 1.48% and 0.4%, the AUCINF [2, 8] was 1789.00 ng·h/mL and 1965.88 ng·h/mL and the AUCall [2, 8] was 1762.55 ng·h/mL and 1958.03 ng·h/mL. For the same compound, the Cmax [2, 8] was 428.07 ng/mL and 597.75 ng/mL, the “T ½” value [2, 8] was 1.49 h and 1.01 h and the Tmax [2, 8] was 0.5 h and 1.0 h. For the same compound, the bioavailability ([2]; Group 2, PO-Suspension 20 mg/kg, individual animals, versus mean IV AUCINF, listed as NVX-144 Free Base) was 34.0% and 37.4%, the plasma concentration ([2]; Group 4, PO-Solution 20 mg/kg, 0.5 hr, individual animals, listed as NVX-144 Free Base) was 610.62 ng/mL and 824.32 ng/mL and the plasma concentration ([2]; Group 4, PO-Solution 20 mg/kg, 1 hr, individual animals, listed as NVX-144 Free Base) was 626.73 ng/mL and 731.54 ng/mL. For the same compound, the plasma concentration ([2]; Group 4, PO-Solution 20 mg/kg, 4 hr, individual animals, listed as NVX-144 Free Base) was 163.62 ng/mL and 221.82 ng/mL, the plasma concentration ([2]; Group 4, PO-Solution 20 mg/kg, 8 hr, individual animals, listed as NVX-144 Free Base) was 75.29 ng/mL and 5.57 ng/mL and 13.76 ng/mL and the “AUC % Extrap” value ([2]; Group 4, PO-Solution 20 mg/kg, Mean N=3) was 3.61%. For the same compound, the AUCINF [2, 9] was 2426.28 ng·h/mL, the Cmax [2, 9] was 713.93 ng/mL and the “T ½” value [2, 9] was 1.56 h. For the same compound, the “AUC % Extrap” value [2, 10] was 9.41% and 0.41% and 1.00%, the AUCINF [2, 10] was 1994.04 ng·h/mL and 2521.47 ng·h/mL and the AUCall [2, 10] was 1985.89 ng·h/mL and 2496.24 ng·h/mL. The Cmax [2, 10] was 626.73 ng/mL and 824.32 ng/mL, the “T ½” value [2, 10] was 2.39 h and 1.01 h and 1.27 h and the Tmax [2, 10] was 0.5 h and 1.0 h. For the same compound, the bioavailability ([2]; Group 4, PO-Solution 20 mg/kg, individual animals, versus mean IV AUCINF, listed as NVX-144 Free base) was 37.9% and 48.0% and the oral absorption ([2]; administered as a solution or suspension) was “moderate”.
